Assay results: patent publication US7491827B2, “Aryl sulfonamides useful as inhibitors of chemokine receptor activity” (Millennium Pharmaceuticals, Inc., priority 2003, dated 2009)

Target: T1, cloned human CCR8 receptor stably expressed in L1.2 cells (Homo sapiens, UniProt P51685)
T1 construct: expressed in transfected cells
Experiment: whole cell binding screen: inhibition of biotinylated human I309 binding to CCR8 (FMAT 8100 HTS)
Conditions: L1.2/hCCR8 cells, biotinylated human I-309, 10 point concentration response starting at 10 μM; read-out: Ki of compounds to inhibit I-309 binding to CCR8
Source text: This whole cell binding screen evaluates the ability of compounds to inhibit biotinlyated human I309 binding to the cloned human CCR8 receptor stably expressed in L1.2 cells. Human CCR8 gene was amplified by PCR using PFU polymerase under standard conditions from human genomic DNA purchased from Stratagene. The PCR primers used were:
The 5′ and 3′ primers contained flanking enzyme sites (Bam Hi and Not 1,respectively), which were used to subclone the gene into pcDNA3.1. […] The CCR8 vector was then transfected into L1.2 cells (murine pre-B cells) by electroporation.
Compounds were screened using the FMAT™ 8100 HTS System (purchased from Applied Biosystems).
A suspension was prepared of L1.2/hCCR8 cells at 4.0×10^5 cells/mL in a binding buffer (Buffer consisting of Hanks Balanced Salt Solution (without phenol red), 10 mM HEPES, 0.1% Fatty Acid Free BSA, 0.02% Sodium Azide).
Dilution series of 10 mM stock concentrations of the test compounds were prepared in DMSO and further diluted into binding buffer defined above) to three times the final assay concentration.
10 point concentration response curve is constructed for each compound, starting at 10 μM (final assay concentration in Binding Buffer). […] The components were mixed in wells by covering the plate with aluminum foil and rotating for 0.5 hours. […] Average fluorescence reported for each concentration was normalized to percent inhibition based on negative (no inhibitor) and positive (100 nM excess unlabeled I309 (R and D Systems)) controls.

T1 sequence (P51685 whole entry): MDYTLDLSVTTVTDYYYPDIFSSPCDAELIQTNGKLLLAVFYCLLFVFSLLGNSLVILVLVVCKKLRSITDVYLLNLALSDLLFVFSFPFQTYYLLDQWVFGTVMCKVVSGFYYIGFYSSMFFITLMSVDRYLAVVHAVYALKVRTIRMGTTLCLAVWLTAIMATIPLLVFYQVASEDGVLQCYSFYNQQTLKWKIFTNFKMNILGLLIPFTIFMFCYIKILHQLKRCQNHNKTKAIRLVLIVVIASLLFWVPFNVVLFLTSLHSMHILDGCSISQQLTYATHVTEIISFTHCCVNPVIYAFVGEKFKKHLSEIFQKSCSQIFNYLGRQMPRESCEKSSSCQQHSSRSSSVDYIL

Row | Ki [µM] | Structure (SMILES)
1 | < 0.5 | Cc1ccccc1C(=O)Nc1ccc(S(=O)(=O)NC2CCN(C(=O)OC(C)(C)C)CC2(C)C)c2ccccc12 (racemic) [Compound A-19, (±)-3,3-Dimethyl-4-[4-(2-methyl-benzoylamino)-naphthalene-0-sulfonylamino]-piperidine-1-carboxylic acid tert-butyl ester]
2 | < 1 | Cc1ccccc1C(=O)Nc1ccc(S(=O)(=O)N[C@H]2CCN(Cc3ccccc3)C[C@H]2C)c2ccccc12 (racemic) [Compound A-21, (±)-cis-N-[4-(1-Benzyl-3-methyl-piperidin-4-ylsulfamoyl)-naphthalen-1-yl]-2-methyl-benzamide]
3 | < 0.5 | Cc1ccccc1C(=O)Nc1ccc(S(=O)(=O)N[C@@H]2CCN(Cc3ccccc3)C[C@H]2C)c2ccccc12 (racemic) [Compound A-23, (±)-trans-N-[4-(1-Benzyl-3-methyl-piperidin-4-ylsulfamoyl)-naphthalen-1-yl]-2-methyl-benzamide]
4 | < 0.5 | Cc1ccccc1C(=O)Nc1ccc(S(=O)(=O)NC2CCN(Cc3ccccc3)CC2(C)C)c2ccccc12 (racemic) [Compound A-24, (±)-N-[4-(1-Benzyl-3,3-dimethyl-piperidin-4-ylsulfamoyl)-naphthalen-1-yl]-2-methyl-benzamide]
5 | < 30 | Cc1ccccc1C(=O)Nc1ccc(S(=O)(=O)NC2[C@@H](C)CN(Cc3ccccc3)C[C@@H]2C)c2ccccc12 (racemic) [Compound A-45, (±)-(cis, trans)-N-[4-(1-Benzyl-3,5-dimethyl-piperidin-4-ylsulfamoyl)-naphthalen-1-yl]-2-methyl-benzamide]
6 | < 30 | CCOC(=O)[C@@H]1CN(Cc2ccccc2)CC[C@@H]1NS(=O)(=O)c1ccc(NC(=O)c2ccccc2C)c2ccccc12 (racemic) [Compound A-47, (±)-(cis)-1-Benzyl-4-[4-(2-methyl-benzoylamino)-naphthalene-1-sulfonylamino]-piperidine-3-carboxylic acid ethyl ester]
7 | < 30 | CCOC(=O)[C@@H]1CN(Cc2ccccc2)CC[C@H]1NS(=O)(=O)c1ccc(NC(=O)c2ccccc2C)c2ccccc12 (racemic) [Compound A-48, (±)-(trans)-1-Benzyl-4-[4-(2-methyl-benzoylamino)-naphthalene-1-sulfonylamino]-piperidine-3-carboxylic acid ethyl ester]
8 | < 0.5 | Cc1ccccc1C(=O)Nc1ccc(S(=O)(=O)NC2CCNCC2(C)C)c2ccccc12 (racemic) [Compound C-11, (±)-N-[4-(3,3-Dimethyl-piperidin-4-ylsulfamoyl)-naphthalen-1-yl]-2-methyl-benzamide]
9 | < 0.5 | Cc1ccccc1C(=O)Nc1ccc(S(=O)(=O)N[C@H]2CCN(C(=O)OC(C)C)C[C@H]2C)c2ccccc12 (racemic) [Compound C-13, (±)-cis-3-Methyl-4-[4-(2-methyl-benzoylamino)-naphthalene-1-sulfonylamino]-piperidine-1-carboxylic acid isopropyl ester]
10 | < 0.5 | Cc1ccccc1C(=O)Nc1ccc(S(=O)(=O)N[C@H]2CCNC[C@@H]2C)c2ccccc12 (racemic) [Compound C-14, (±)-trans-2-MethylN-[4-(3-methyl-piperidin-4-ylsulfamoyl)-naphthalen-1-yl]-benzamide]
11 | < 0.5 | CCNC(=O)N1CC[C@H](NS(=O)(=O)c2ccc(NC(=O)c3ccccc3C)c3ccccc23)[C@@H](C)C1 (racemic) [Compound C-16, (±)-trans-3-Methyl-4-[4-(2-methyl-benzoylanlino)-naphthalene-1-sulfonylamino]-piperidine-1-carboxylic acid ethylaiide]
12 | < 0.5 | CCOC(=O)N1CC[C@H](NS(=O)(=O)c2ccc(NC(=O)c3ccccc3C)c3ccccc23)[C@@H](C)C1 (racemic) [Compound C-17, (±)-trans-3-Methyl-4-[4-(2-methyl-benzoylamino)-naphthalene-1-sulfonylaminno]-piperidine-1-carboxylic acid ethyl ester]
